Non-standard residues stand in square brackets, D forms with d. Residues, ends and D or L forms follow the SMILES beside them. pGlu = O=C1CC[C@@H](C(=O)O)N1; Thz = O=C(O)[C@@H]1CSCN1
How the values were obtained:
[1] = anaerostipes sp., 12 h, 2 µM
Description: The drug is tested on Anaerostipes sp. strain: fecal isolate for biotransformation. The drug concentrations were measured before and after a 12-h incubation by liquid-chromatography-coupled mass spectrometry (LC–MS)

[2] = bacteroides fragilis, 12 h, 2 µM
Description: The drug is tested on Bacteroides fragilis strain: NCTC 9343 for biotransformation. The drug concentrations were measured before and after a 12-h incubation by liquid-chromatography-coupled mass spectrometry (LC–MS)

[3] = roseburia intestinalis, 12 h, 2 µM
Description: The drug is tested on Roseburia intestinalis strain: L1-82 for biotransformation. The drug concentrations were measured before and after a 12-h incubation by liquid-chromatography-coupled mass spectrometry (LC–MS)

[4] = The drug is tested on Eggerthella lenta strain: ATCC25559 for biotransformation. The drug concentrations were measured before and after a 12-h incubation by liquid-chromatography-coupled mass spectrometry (LC–MS); conditions: 2 µM
[5] = The drug is tested on Enterococcus faecalis strain: V583 for biotransformation. The drug concentrations were measured before and after a 12-h incubation by liquid-chromatography-coupled mass spectrometry (LC–MS); conditions: 2 µM
[6] = bacteroides thetaiotaomicron, 12 h, 2 µM
Description: The drug is tested on Bacteroides thetaiotaomicron strain: VPI-5482 for biotransformation. The drug concentrations were measured before and after a 12-h incubation by liquid-chromatography-coupled mass spectrometry (LC–MS)

Measured: Bacterial Biotransformation

CCCc1nc2c(C)cc(-c3nc4ccccc4n3C)cc2n1Cc1ccc(-c2ccccc2C(=O)O)cc1
Compound metabolized: [2]
Compound NOT metabolized: [1] | [3] | [4]

CN1CC(=O)N2[C@H](c3ccc4c(c3)OCO4)c3[nH]c4ccccc4c3C[C@@H]2C1=O
Compound NOT metabolized: [1] | [2] | [3] | [5]

COc1cc2nc(N(C)CCCNC(=O)C3CCCO3)nc(N)c2cc1OC (configuration not stated) [ALFUZOSIN]
Compound NOT metabolized: [1] | [6] | [2] | [3] | [5]

O=P(O)(O)O.c1ccc(CN(CC2=NCCN2)c2ccccc2)cc1 [ANTAZOLINE PHOSPHATE]
Compound NOT metabolized: [1] | [6] | [2] | [3] | [5]

CC(=O)OCC(=O)[C@@]1(O)[C@@H](C)C[C@H]2[C@@H]3CCC4=CC(=O)C=C[C@]4(C)[C@@]3(F)[C@@H](O)C[C@@]21C [BETAMETHASONE ACETATE]
Compound metabolized: [6] | [2]
Compound NOT metabolized: [1] | [3] | [5] | [4]

CC(O)(CS(=O)(=O)c1ccc(F)cc1)C(=O)Nc1ccc(C#N)c(C(F)(F)F)c1 (configuration not stated) [BICALUTAMIDE]
Compound NOT metabolized: [1] | [6] | [3] | [5]

O=C1CC2(CCCC2)CC(=O)N1CCCCN1CCN(c2ncccn2)CC1 [BUSPIRONE]
Compound NOT metabolized: [1] | [6] | [2] | [3] | [5]

Br.CN1CCC[C@@H]1Cc1c[nH]c2ccc(CCS(=O)(=O)c3ccccc3)cc12 [ELETRIPTAN HYDROBROMIDE]
Compound NOT metabolized: [1] | [2] | [3] | [5]

C[C@@H](CO)NC(=O)[C@@H]1C=C2c3cccc4[nH]cc(c34)C[C@H]2N(C)C1.O=C(O)/C=C\C(=O)O [ERGONOVINE MALEATE]
Compound metabolized: [6] | [2]
Compound NOT metabolized: [1] | [3] | [5]

CCc1cccc2c3c([nH]c12)C(CC)(CC(=O)O)OCC3 (configuration not stated) [ETODOLAC]
Compound NOT metabolized: [1] | [5] | [4]
Compound metabolized: [6]

NC(CO)(CO)CO.O=C(c1ccccc1)c1ccc2n1CCC2C(=O)O (configuration not stated) [KETOROLAC TROMETHAMINE]
Compound metabolized: [6] | [2]
Compound NOT metabolized: [1] | [5]

CCOc1ccc(NC(C)=O)cc1 [PHENACETIN]
Compound NOT metabolized: [1] | [6] | [2] | [3] | [5]

O=C1N=C([O-])NC1(c1ccccc1)c1ccccc1.[Na+] [PHENYTOIN SODIUM]
Compound metabolized: [2]
Compound NOT metabolized: [1] | [6] | [3] | [5]

O=C1CC[C@@H](C(=O)N2CSC[C@H]2C(=O)O)N1 [PIDOTIMOD] ([pGlu]-[Thz]-OH)
Compound metabolized: [6] | [2]
Compound NOT metabolized: [1] | [3] | [5]

CC(CN1c2ccccc2Sc2ccccc21)N(C)C (configuration not stated) [PROMETHAZINE]
Compound NOT metabolized: [1] | [6] | [2] | [5]

COc1ccccc1OCC(O)CN1CCN(CC(=O)Nc2c(C)cccc2C)CC1 (configuration not stated) [RANOLAZINE]
Compound NOT metabolized: [1] | [6] | [2] | [3] | [5]

CN(CCOc1ccc(CC2SC(=O)NC2=O)cc1)c1ccccn1.O=C(O)/C=C\C(=O)O (configuration not stated) [ROSIGLITAZONE MALEATE]
Compound NOT metabolized: [1] | [6] | [2] | [3] | [5]

CN[C@H]1CC[C@@H](c2ccc(Cl)c(Cl)c2)c2ccccc21 [SERTRALINE]
Compound NOT metabolized: [1] | [6] | [2] | [5] | [4]

CCCc1nn(C)c2c(=O)[nH]c(-c3cc(S(=O)(=O)N4CCN(C)CC4)ccc3OCC)nc12.O=C(O)CC(O)(CC(=O)O)C(=O)O [SILDENAFIL CITRATE]
Compound metabolized: [2]
Compound NOT metabolized: [1] | [6] | [3] | [5]

O=C(CCCN1CCC2(CC1)C(=O)NCN2c1ccccc1)c1ccc(F)cc1 [SPIPERONE]
Compound NOT metabolized: [1] | [6] | [2] | [5]

CCN1CCCC1CNC(=O)c1cc(S(N)(=O)=O)ccc1OC (configuration not stated) [SULPIRIDE]
Compound NOT metabolized: [1] | [2] | [3] | [5] | [4]

CCOc1ccccc1OCCN[C@H](C)Cc1ccc(OC)c(S(N)(=O)=O)c1.Cl [TAMSULOSIN HYDROCHLORIDE]
Compound NOT metabolized: [1] | [6] | [2] | [3] | [5] | [4]

COc1cc2nc(N3CCN(C(=O)C4CCCO4)CC3)nc(N)c2cc1OC (configuration not stated) [TERAZOSIN]
Compound NOT metabolized: [1] | [6] | [2] | [3] | [5] | [4]

c1ccc2[nH]c(-c3cscn3)nc2c1 [THIABENDAZOLE]
Compound NOT metabolized: [1] | [6] | [3] | [5] | [4]

Cc1ccc(S(=O)(=O)NC(=O)NN2CCCCCC2)cc1 [TOLAZAMIDE]
Compound NOT metabolized: [1] | [3] | [5]
Compound metabolized: [6] | [2]

O=c1n(CCCN2CCN(c3cccc(Cl)c3)CC2)nc2ccccn12 [TRAZODONE]
Compound NOT metabolized: [1] | [6] | [2] | [3] | [5] | [4]

COc1cc(C(=O)NCc2ccc(OCCN(C)C)cc2)cc(OC)c1OC [TRIMETHOBENZAMIDE]
Compound NOT metabolized: [1] | [6] | [2] | [3] | [5]

CCOC(=O)C1=C[C@]2(CC)CCCN3CCc4c(n1c1ccccc41)[C@@H]32 [VINPOCETINE]
Compound NOT metabolized: [1] | [6] | [2] | [5] | [4]

C[C@@H](c1ncncc1F)[C@](O)(Cn1cncn1)c1ccc(F)cc1F [VORICONAZOLE]
Compound NOT metabolized: [1] | [2] | [3] | [5] | [4]

CCN(C(C)=O)c1cccc(-c2ccnc3c(C#N)cnn23)c1 [ZALEPLON]
Compound metabolized: [2]
Compound NOT metabolized: [5]

Cc1cn([C@H]2C[C@H](N=[N+]=[N-])[C@@H](CO)O2)c(=O)[nH]c1=O [ZIDOVUDINE]
Compound metabolized: [3]
Compound NOT metabolized: [6] | [5] | [4]

Reference: ChEMBL document CHEMBL5303573, “Mapping human microbiome drug metabolism by gut bacteria and their genes” (Nature, 2019)
